Source: ChEMBL document CHEMBL5046261, “Flavonostilbenes Isolated from the Stems of Rhamnoneuron balansae as Potential SIRT1 Activators” (J Nat Prod, 2022)
Calls of active or inactive are those of the source. No cut-off for these calls is given here.

Assays:
[1] = target: T1, NAD-dependent protein deacetylase sirtuin-1 (Homo sapiens) (UniProt Q96EB6); assay: Activation of SIRT1 (unknown origin) expressed in human HEK293 cells assessed as decrease in p53 transcriptional activity at 20 uM measured after 24 hrs by luciferase reporter gene assay; type: cell-based; conditions: filed as activator
T1 sequence (whole entry): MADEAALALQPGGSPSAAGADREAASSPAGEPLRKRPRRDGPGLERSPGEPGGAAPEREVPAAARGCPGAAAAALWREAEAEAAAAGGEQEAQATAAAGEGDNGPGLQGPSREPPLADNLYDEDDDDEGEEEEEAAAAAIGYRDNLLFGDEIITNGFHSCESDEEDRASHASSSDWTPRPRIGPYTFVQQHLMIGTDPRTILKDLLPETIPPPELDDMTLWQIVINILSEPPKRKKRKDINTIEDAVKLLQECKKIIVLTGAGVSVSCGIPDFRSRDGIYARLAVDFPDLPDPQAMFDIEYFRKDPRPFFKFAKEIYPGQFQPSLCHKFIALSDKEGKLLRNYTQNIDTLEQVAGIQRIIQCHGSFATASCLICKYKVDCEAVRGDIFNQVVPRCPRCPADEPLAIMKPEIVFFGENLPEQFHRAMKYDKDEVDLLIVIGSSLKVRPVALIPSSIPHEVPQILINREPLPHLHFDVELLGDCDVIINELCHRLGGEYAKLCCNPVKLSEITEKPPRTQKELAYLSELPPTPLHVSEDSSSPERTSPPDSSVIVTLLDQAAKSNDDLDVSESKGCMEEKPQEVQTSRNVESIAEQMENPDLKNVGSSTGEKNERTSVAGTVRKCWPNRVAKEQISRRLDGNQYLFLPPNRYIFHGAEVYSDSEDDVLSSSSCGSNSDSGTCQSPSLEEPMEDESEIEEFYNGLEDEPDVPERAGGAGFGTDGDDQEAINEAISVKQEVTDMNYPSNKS

[2] = target: T1, NAD-dependent protein deacetylase sirtuin-1 (Homo sapiens); assay: Activation of SIRT1 (unknown origin) expressed in human HEK293 cells assessed as increase in deacetylase activity from 1.25 to 20 uM measured after 24 hrs by luciferase reporter gene assay; type: cell-based; conditions: filed as activator, dose 1.25-20 µM
[3] = target: T1, NAD-dependent protein deacetylase sirtuin-1 (Homo sapiens); assay: Activation of SIRT1 (unknown origin) expressed in human HEK293 cells assessed as increase intracellular NAD+ level at 10 uM in presence of NAD+ as substrate incubated for 12 hrs by NAD+/NADH assay based fluorescence microplate reader; type: cell-based; conditions: filed as activator
[4] = target: T1, NAD-dependent protein deacetylase sirtuin-1 (Homo sapiens); assay: Activation of SIRT1 (unknown origin) expressed in human HEK293 cells assessed as decrease in luciferase activity at 5 uM measured after 24 hrs by luciferase reporter gene assay; type: cell-based; conditions: filed as activator
C2C12 [5] = assay: Effect on AMPK in mouse C2C12 myotubes assessed as increase in AMPK-alpha phosphorylation at Thr172 at 5 to 10 uM measured after 1 hrs by western blot analysis; type: functional, cell-based; conditions: dose 5-10 µM
[6] = target: T1, NAD-dependent protein deacetylase sirtuin-1 (Homo sapiens); assay: Activation of SIRT1 (unknown origin) expressed in human HEK293 cells assessed as increase intracellular NAD+ level at 20 uM in presence of NAD+ as substrate incubated for 12 hrs by NAD+/NADH assay based fluorescence microplate reader; type: cell-based; conditions: filed as activator
C2C12 [7] = assay: Cytotoxicity against mouse C2C12 myotubes assessed as cell viability at 10 to 40 uM measured after 24 hrs by MTT assay; type: toxicity, cell-based; conditions: c2c12, 24 h, dose 10-40 µM
HEK293 = assay: Cytotoxicity against human HEK293 cells assessed as cell viability at 20 uM measured after 24 hrs by MTT assay; type: toxicity, cell-based; conditions: hek293, 24 h
C2C12 [8] = assay: Effect on AMPK in mouse C2C12 myotubes assessed as increase in AMPK-alpha phosphorylation at Thr172 at 1 mM measured after 1 hrs by western blot analysis; type: functional, cell-based
[9] = target: T1, NAD-dependent protein deacetylase sirtuin-1 (Homo sapiens); assay: Activation of SIRT1 (unknown origin) expressed in human HEK293 cells assessed as increase in NAD+/NADH ratio at 10 to 40 uM in presence of NAD+ as substrate incubated for 12 hrs by NAD+/NADH assay based fluorescence microplate reader; type: cell-based; conditions: filed as activator, dose 10-40 µM
[10] = target: T1, NAD-dependent protein deacetylase sirtuin-1 (Homo sapiens); assay: Activation of SIRT1 (unknown origin) expressed in human HEK293 cells assessed as decrease in luciferase activity at 20 uM measured after 24 hrs by luciferase reporter gene assay; type: cell-based; conditions: filed as activator

Row | Activity [1] | SMILES | Activity (HEK293) | further results
1 | Active | O=C1c2c(O)cc(O)c(-c3cc(/C=C/c4cc(O)cc(O)c4)ccc3O)c2O[C@H](c2ccc(O)cc2)[C@H]1O | Non-Toxic | Activity [2]: Dose-Dependent Effect; Activity [3]: Active; Activity [4]: Active; Activity (C2C12 [5]): Active; Activity [6]: Active; Activity (C2C12 [7]): Non-Toxic
2 |  | O=C1c2c(O)cc3c(c2O[C@@H](c2ccc(O)cc2)[C@@H]1O)[C@H](c1cc(O)cc(O)c1)[C@@H](c1ccc(O)cc1)O3 | Non-Toxic | 
3 |  | O=c1c(O)c(-c2ccc(O)cc2)oc2cc3c(c(O)c12)[C@@H](c1cc(O)cc(O)c1)[C@@H](c1ccc(O)cc1)O3 | Non-Toxic | 
4 | Active | O=c1c(O)c(-c2ccc(O)cc2)oc2c(-c3cc(/C=C/c4cc(O)cc(O)c4)ccc3O)c(O)cc(O)c12 | Non-Toxic | 
5 |  | NC(=O)c1ncn([C@@H]2O[C@H](CO)[C@@H](O)[C@H]2O)c1N |  | Activity (C2C12 [8]): Active
6 |  | O=c1c(O)c(-c2ccc(O)cc2)oc2cc3c(c(O)c12)[C@@H](c1cc(O)cc(O)c1)[C@H](c1ccc(O)cc1)O3 | Non-Toxic | 
7 |  | O=c1c(O)c(-c2ccc(O)c(O)c2)oc2cc3c(c(O)c12)[C@@H](c1cc(O)cc(O)c1)[C@H](c1ccc(O)cc1)O3 | Non-Toxic | 
8 |  | Oc1ccc(/C=C/c2cc(O)cc(O)c2)cc1 |  | Activity [9]: Dose-Dependent Effect; Activity [10]: Active
9 |  | O=c1c(O)c(-c2cc(O)c(O)c(O)c2)oc2c3c(cc(O)c12)O[C@H](c1ccc(O)cc1)[C@H]3c1cc(O)cc(O)c1 | Non-Toxic | 
10 | Active | O=c1c(O)c(-c2ccc(O)c(O)c2)oc2c(-c3cc(/C=C/c4cc(O)cc(O)c4)ccc3O)c(O)cc(O)c12 | Non-Toxic | 
11 | Active | O=C1c2c(cc(O)c(-c3cc(/C=C/c4cc(O)cc(O)c4)ccc3O)c2O)O[C@H](c2ccc(O)c(O)c2)[C@H]1O | Non-Toxic | 
12 | Active | O=c1c(O)c(-c2ccc(O)cc2)oc2cc(O)c(-c3cc(/C=C/c4cc(O)cc(O)c4)ccc3O)c(O)c12 | Non-Toxic | 
13 |  | O=c1c(O)c(-c2ccc(O)cc2)oc2c3c(cc(O)c12)O[C@@H](c1ccc(O)cc1)[C@H]3c1cc(O)cc(O)c1 | Non-Toxic | 
